Laboratory results published in ChEMBL document CHEMBL1155658, “Isolation and structures of schleicherastatins 1-7 and schleicheols 1 and 2 from the teak forest medicinal tree Schleichera oleosa” (2000).
Values after ≈ are worked out from the molar mass of the structure shown. Blank lines part the entries; values can stand above or below the compound they belong to.

Columns and labels:
Assay type in all cases: functional
BXPC-3 = experiment: Growth inhibition of human BXPC3 cells
KM-20L2 = experiment: Growth inhibition of human KM20L2 cells
SF-295 = experiment: Growth inhibition of human SF295 cells
OVCAR-3 = experiment: Growth inhibition of human OVCAR-3 cells
[1] = Growth inhibition of human prostate cancer cells; details: Cancer cell lines
NCI-H460 = experiment: Growth inhibition of human NCI-H460 cells
P388 = experiment: Growth inhibition of mouse P388 cells

SMILES: CC[C@H](CC[C@@H](C)C1CC[C@H]2[C@@H]3[C@@H](OC)C=C4C[C@@H](O)CC[C@]4(C)[C@H]3CC[C@]12C)C(C)C (some centres not stated) [SCHLEICHEOL 1]
GI50 (BXPC-3): 3.3 µg/mL (≈ 7.42 µM) | GI50 (KM-20L2): 2.5 µg/mL (≈ 5.62 µM) | GI50 (SF-295): 3.2 µg/mL (≈ 7.2 µM) | GI50 (OVCAR-3): 2.1 µg/mL (≈ 4.72 µM) | GI50 [1]: 1.8 µg/mL (≈ 4.05 µM) | GI50 (NCI-H460): 1.8 µg/mL (≈ 4.05 µM) | GI50 (P388): 14 µg/mL (≈ 31.5 µM)

SMILES: CC[C@H](CC[C@@H](C)C1CC[C@H]2C3[C@H](OC)C=C4C[C@@H](O)CC[C@]4(C)[C@H]3CC[C@]12C)C(C)C (some centres not stated) [SCHLEICHEOL 2]
GI50 (BXPC-3): 1.4 µg/mL (≈ 3.15 µM) | GI50 (KM-20L2): 1.2 µg/mL (≈ 2.7 µM) | GI50 (SF-295): 1.9 µg/mL (≈ 4.27 µM) | GI50 (OVCAR-3): 2.5 µg/mL (≈ 5.62 µM) | GI50 [1]: 1.6 µg/mL (≈ 3.6 µM) | GI50 (NCI-H460): 2.2 µg/mL (≈ 4.95 µM) | GI50 (P388): 15 µg/mL (≈ 33.7 µM)

SMILES: CO[C@H]1C=C2C[C@@H](O)CC[C@]2(C)[C@H]2CC[C@]3(C)C([C@H](C)[C@H](O)C[C@@H](C)C(C)C)CC[C@H]3[C@H]12 (some centres not stated) [SCHLEICHERASTATIN 3]
GI50 (P388): 1.2 µg/mL (≈ 2.69 µM)

SMILES: COC(=O)c1ccc(O)c(O)c1 [METHYL PROTOCATECHUATE]
EC50 (P388; read-out: ED50 (the source's name)): 1.4 µg/mL (≈ 8.33 µM)

SMILES: CC[C@H](C[C@@H](O)[C@@H](C)[C@H]1CC[C@H]2[C@@H]3[C@H](OC)C=C4C[C@@H](O)CC[C@]4(C)[C@H]3CC[C@]12C)C(C)C [SCHLEICHERASTATIN 2]
GI50 (P388): 0.72 µg/mL (≈ 1.56 µM)

SMILES: CC[C@H](C[C@@H](O)[C@@H](C)[C@H]1CC[C@H]2[C@@H]3[C@@H](OC)C=C4C[C@@H](O)CC[C@]4(C)[C@H]3CC[C@]12C)C(C)C [SCHLEICHERASTATIN 1]
GI50 (P388): 0.19 µg/mL (≈ 0.412 µM)

Now from value to compound:

GI50 (P388): 0.34 µg/mL (≈ 0.765 µM)
SMILES: CC[C@H](C[C@@H](O)[C@@H](C)C1CC[C@H]2[C@@H]3C(=O)C=C4C[C@@H](O)CC[C@]4(C)[C@H]3CC[C@]12C)C(C)C (some centres not stated) [SCHLEICHERASTATIN 5]

GI50 (P388): 1.2 µg/mL (≈ 2.69 µM)
SMILES: CO[C@H]1C=C2C[C@@H](O)CC[C@]2(C)[C@H]2CC[C@]3(C)C([C@H](C)[C@H](O)C[C@H](C)C(C)C)CC[C@H]3[C@H]12 (some centres not stated) [SCHLEICHERASTATIN 4]

GI50 (P388): 0.78 µg/mL (≈ 1.81 µM)
SMILES: CC(C)[C@H](C)C[C@@H](O)[C@@H](C)C1CC[C@H]2[C@@H]3C(=O)C=C4C[C@@H](O)CC[C@]4(C)[C@H]3CC[C@]12C (some centres not stated) [SCHLEICHERASTATIN 6]

GI50 (P388): 0.78 µg/mL (≈ 1.81 µM)
SMILES: CC(C)[C@@H](C)C[C@@H](O)[C@@H](C)C1CC[C@H]2[C@@H]3C(=O)C=C4C[C@@H](O)CC[C@]4(C)[C@H]3CC[C@]12C (some centres not stated) [SCHLEICHERASTATIN 7]
